Experimental data as given in patent publication US20160206631A1, “OXYSTEROLS THAT ACTIVATE LIVER X RECEPTOR SIGNALING AND INHIBIT HEDGEHOG SIGNALING” (THE REGENTS OF THE UNIVERSITY OF CALIFORNIA, priority 2010, published 2016).

Columns and labels:
Hedgehog signaling = test: CAPAN-1 conditioned-medium-induced Hh target gene expression (Ptch1, HHIP, Gli1) in C3H10T1/2 cells; type: cell-based; settings: C3H10T1/2 cells treated with CAPAN-1 CM
Method: Next, cells were treated with DMEM containing 5% […] or CAPAN-1 CM in the presence or absence of TO, Oxy16, or Cyc. After 48 hours, RNA was extracted and analyzed by Q-RT-PCR for the expression of Hh target genes Ptch1, HHIP, and Gli1 and normalized to GAPDH expression.
As noted above, Hh signaling appears to play an important role in the initiation and progression of pancreatic cancer (26), and the inhibition of HE signaling using small molecule antagonists inhibits pancreatic cancer cells from growing in vitro and in vivo (50). […] Subsequently, Hh signaling in stromal cells provides a permissive milieu for tumor cells to grow. […] In this Example, we examine this possibility using an in vitro model system in which Hh signaling is induced in C3H10T1/2 embryonic fibroblasts by conditioned-medium (CM) from CAPAN-1 human pancreatic cancer cells.
In order to assess the functional activity of Hh proteins produced by CAPAN-1 cells, we examined the ability of CM to induce Hh target gene expression in C3H10T1/2 embryonic fibroblasts.

LXR [1] = test: ABCA1 (LXR target gene) expression by Q-RT-PCR in M2-10B4 bone marrow stromal cells; settings: for fold induction at 2 µM: M210B4, 48 h, read-out: ABCA1 gene expression, Fold Induction ± SD; for LXR signaling activation: bone marrow stromal cells
Method: This was measured by the ability of these molecules to induce the expression of LXR-target genes, including ABCA1, in M2-10B4 bone marrow stromal cells (MSC) after 48 hours of treatment (Table 1).

[2] = tested on: L3.6p1 human pancreatic cancer cells; test: Clonogenic growth of L3.6p1 pancreatic cancer cells in methylcellulose; type: cell-based; settings: 72 hours treatment, colonies counted after 10 days
Method: (§1) Following treatment cells were harvested by washing cells twice with phosphate buffered saline (PBS) followed by enzymatically detaching with trypsin/EDTA. Cells were collected then washed twice with PBS. Cells were counted then resuspended in 500 uL of media. The volume of cells required for 2,000 cells from the control group was removed from each group then mixed with methylcellulose (1.2%) containing 30% fetal bovine serum, 1% bovine serum albumin, 10^-4 M 2-mercaptoethanol, and 2 mM L-glutamine. Cells were plated in low-attachment 6 well plates (1 ml/well), each group being plated in triplicate. Following 10 days of incubation, tumor cell colonies consisting of >40 cells were counted using an inverted microscope. Results are presented as the percentage of colonies from each treatment group compared to the control group (Table 2).

[3] = tested on: human primary multiple myeloma cells derived from patients; test: Clonogenic growth of primary multiple myeloma cells from patients in methylcellulose; type: cell-based; settings: 1 μM, 96 hours, CD34+ and CD138+ depleted bone marrow mononuclear cells
[4] = tested on: NCI-H929 multiple myeloma cancer stem cells; test: Percentage of cancer stem cells (CD138 negative, ALDH positive) in NCI-H929 cultures by flow cytometry; type: cell-based, human; settings: 1 μM, 96 hours (FIGS. 7, 8)
Method: NCI-H929 multiple myeloma cells were treated for 96 hours with control vehicle or 1 μM of each compound as shown. Next, percentage of CD138negative cells in the same number of starting cells from each group was determined by flow cytometry.
NCI-H929 multiple myeloma cells were treated for 96 hours with control vehicle or 1 μM of each compound as shown. Next, percentage of ALDH+ cells in the same number of starting cells from each group was determined by flow cytometry.

REH human ALL cells = test: Clonogenic growth of REH ALL cells; type: cell-based
Method: as §1
A similar experiment to that shown above for pancreatic cancer cells was performed using the human ALL cells, REH (Table 3).

[5] = tested on: human NCI-H929 multiple myeloma cell line; test: Clonogenic growth of NCI-H929 multiple myeloma cells; type: cell-based; settings: 1 μM, 96 hours, colonies after 10 days (FIG. 6)
Method: NCI-11929 multiple myeloma cells were treated for 96 hours with control vehicle or 1 μM of each compound as shown. Next, drugs were removed and cells were plated in methylcellulose. Clonogenic growth of colonies determined after 10 days. Data are reported as percentage of colony number normalized to control group.
In order to examine the effect of LXR activation on the clonogenic growth of multiple myeloma cells, the human NCI-H929 multiple myeloma cell line was used.

LXR [6] = test: LXR target gene expression by Q-RT-PCR in Saos-2 osteosarcoma cells; type: cell-based, human; settings: Saos-2 cells (FIG. 2, 72 hours for TO)
Source text: Data from a representative experiment are reported as the Data from a representative experiment are reported as the mean of triplicate determinations±SD relative to the expression level of LXRα (p<0.001 for control vs. both concentrations of TO for ABCA1 and SREBP1c mRNA).
Culturing the cells in varying serum (FBS) concentrations from 1% to 10% had no effect on LXRs or LXR target gene expression levels at baseline.

LXR [7] = test: LXR target gene expression in human pancreatic cancer cells
[8] = tested on: Saos-2 human osteosarcoma cells; test: Anchorage-independent clonogenic growth of Saos-2 cells; type: cell-based; settings: Saos-2; 1 μM, 72 hours, colonies after 10 days (FIG. 4)
Method: (§2) Next, cells were harvested and examined for clonogenic growth in non-adherent plates after 10 days of culturing. Data from a representative of two separate experiments are reported as the relative number of colonies formed by cells treated with LXR ligands relative to cells treated with control vehicle (% of control).
(§3) We examined whether LXR activation inhibits the clonogenic growth of human osteosarcoma cells using an anchorage-independent cell growth assay. Saos-2 and U2OS cells were seeded in standard tissue culture plates and treated for 72 hours with control vehicle or 1 μM of TO, 22R, or Oxy16. Following treatments with LXR ligands, the drugs were removed and the cells harvested and plated in methylcellulose media in non-adherent plates (Costar) and the cell colonies formed after 10 days were counted.

[9] = tested on: human pancreatic cancer cells; test: Clonogenic growth of human pancreatic cancer cells in vitro; type: cell-based
[10] = tested on: U2OS human osteosarcoma cells; test: Anchorage-independent clonogenic growth of U2OS cells; type: cell-based; settings: 1 μM, 72 hours, colonies after 10 days (FIG. 4)
Method: as §2, §3

CC(C)CC[C@H](O)[C@@H](C)[C@H]1CC[C@H]2[C@@H]3CC=C4C[C@@H](O)CC[C@]4(C)[C@H]3CC[C@]12C [22(S)-hydroxycholesterol]
CM-induced Hh signaling (Hedgehog signaling): did not have similar inhibitory effects

C[C@]12CC[C@H]3[C@@H](CC=C4C[C@@H](O)CC[C@@]43C)[C@@H]1CC[C@@H]2[C@@](C)(O)CCCc1ccccc1 [Oxy22]
fold induction at 2 µM (LXR [1]): 2.2 ± 0.4 | LXR signaling activation (LXR [1]): Activate LXR Signaling

CC(C)CCC[C@](C)(O)C1CCC2C3CC=C4CC(=O)CC[C@]4(C)C3CC[C@@]21C (stereo partly drawn) [Oxy30, (10R,13S)-17-((S)-2-Hydroxy-6-methylheptan-2-yl)-10,13-dimethyl-4,7,8,9,10,11,12, 13,14,15,16,17-dodecahydro-1H-cyclopenta[a]phenanthren-3(2H)-one]
fold induction at 2 µM (LXR [1]): 2.8 ± 0.8 | LXR signaling activation (LXR [1]): Activate LXR Signaling | Normalized Colony # (% of control) ([2]; 5 μM): 39 % of control | Raw Colony # ([2]; 5 μM): 96 | Normalized Colony # (% of control) ([2]; 10 μM): 41 % of control | Raw Colony # ([2]; 10 μM): 100

CC(C)CCC[C@](C)(O)C1CCC2C3CCC4=CC(=O)CC[C@]4(C)C3CC[C@@]21C (stereo partly drawn) [Oxy31, (10R,13S)-17-((S)-2-Hydroxy-6-methylheptan-2-yl)-10,13-dimethyl-6,7,8,9,10,11,12, 13,14,15,16,17-dodecahydro-1H-cyclopenta[a]phenanthren-3(2H)-one]
fold induction at 2 µM (LXR [1]): 2 ± 0.3 | LXR signaling activation (LXR [1]): Activate LXR Signaling

CC(C)CCC[C@](C)(O)C1CCC2C3CC=C4C[C@H](O)CC[C@]4(C)C3CC[C@@]21C (stereo partly drawn) [Oxy35, (3R,10R,13S)-17-((S)-2-Hydroxy-6-methylheptan-2-yl)-10,13-dimethyl-2,3,4,7,8,9, 10,11,12,13,14,15,16,17-tetradecahydro-1H-cyclopenta[a]phenanthren-3-ol]
fold induction at 2 µM (LXR [1]): 4 ± 1.2 | LXR signaling activation (LXR [1]): Activate LXR Signaling

CC(C)CCC[C@](C)(O)C1CCC2C3CC=C4C=CCC[C@]4(C)C3CC[C@@]21C (stereo partly drawn) [Oxy37, (2S)-2-((10R,13S)-10,13-Dimethyl-2,7,8,9,10,11,12,13,14,15,16,17-dodecahydro-1H-cyclopenta[a]phenanthren-17-yl)-6-methylheptan-2-ol]
fold induction at 2 µM (LXR [1]): 2 ± 0.1 | LXR signaling activation (LXR [1]): Activate LXR Signaling

C[C@]12CC[C@H]3[C@@H](CC=C4C[C@@H](O)CC[C@@]43C)[C@@H]1CC[C@@H]2[C@@](C)(O)CCc1cccnc1 [Oxy43, (3S,8S,9S,10R,13S,14S,17S)-17-((S)-2-Hydroxy-4-(yridine-3-yl)butan-2-yl)-10,13-dimethyl-2,3,4,7,8,940,11,12,13,14,15,16,17-tetradecahydro-1H-cyclopenta-[a]-phenanthren-3-ol]
fold induction at 2 µM (LXR [1]): 2.5 ± 0.8 | LXR signaling activation (LXR [1]): Activate LXR Signaling

C[C@]12CC[C@H]3[C@@H](CC=C4C[C@@H](O)CC[C@@]43C)[C@@H]1CC[C@@H]2[C@@](C)(O)CCc1ccc(F)cc1 [Oxy45, (3S,8S,9S,10R,13S,14S,17S)-17-((S)-4-(4-Fluorophenyl)-2-hydroxybutan-2-yl)-10,13-dimethyl-2,3,4,7,8,9,10,11,12,13,14,15,16,17-tetradecahydro-1H-cyclopenta-M-phenanthren-3-ol]
colony formation (% of control) ([3]; Specimen # 1): 46 % of control | colony formation (% of control) ([3]; Specimen # 2): 25 % of control | fold induction at 2 µM (LXR [1]): 3.5 ± 0.5 | LXR signaling activation (LXR [1]): Activate LXR Signaling | percentage of cancer stem cells (CD138 negative and ALDH positive cells) [4]: significantly reduced | Normalized Colony # (% of control) (REH human ALL cells; 0.1 μM): 43 % of control | Raw Colony # (REH human ALL cells; 0.1 μM): 40 | Normalized Colony # (% of control) (REH human ALL cells; 0.5 μM): 0.5 % of control | Raw Colony # (REH human ALL cells; 0.5 μM): 0.5 | clonogenic growth [5]: inhibited clonogenic growth

C[C@]12CC[C@H]3[C@@H](CC=C4C[C@@H](O)CC[C@@]43C)[C@@H]1CC[C@@H]2[C@@](C)(O)CCc1ccc(Cl)cc1 [Oxy47, (3S,8S,9S,10R,13S,14S,17S)-17-((S)-4-(4-Chlorophenyl)-2-hydroxybutan-2-yl)-10,13-dimethyl-2,3,4,7,8,9,10,11,12,13,14,15,16,17-tetradecahydro-1H-cyclopenta-[a]-phenanthren-3-ol]
fold induction at 2 µM (LXR [1]): 1.8 ± 0.5 | LXR signaling activation (LXR [1]): Activate LXR Signaling

CC(C)CCC[C@](C)(O)[C@H]1CC[C@H]2[C@@H]3CC=C4C[C@@H](O)CC[C@]4(C)[C@H]3CC[C@@]21C [Oxy 20S, 20(S)-hydroxycholesterol, reference compound]
expression of LXR target genes ABCA1 and SREBP1c (LXR [6]): significant expression

CC(C)CC[C@@H](O)[C@@H](C)[C@H]1CC[C@H]2[C@@H]3CC=C4C[C@@H](O)CC[C@]4(C)[C@H]3CC[C@]12C [Oxy 22R, 22R-hydroxycholesterol, reference compound]
expression of LXR target genes (LXR [7]): induce the expression of LXR target genes | CM-induced Hh signaling (Hedgehog signaling): inhibited | clonogenic growth [8]: significant inhibition | clonogenic growth [9]: significantly inhibit | Normalized Colony # (% of control) (REH human ALL cells; 0.1 μM): 36 % of control | Raw Colony # (REH human ALL cells; 0.1 μM): 33 | Normalized Colony # (% of control) (REH human ALL cells; 0.5 μM): 2 % of control | Raw Colony # (REH human ALL cells; 0.5 μM): 2 | expression of LXR target genes ABCA1 and SREBP1c (LXR [6]): significant expression | Normalized Colony # (% of control) ([2]; 5 μM): 63 % of control | Raw Colony # ([2]; 5 μM): 153 | Normalized Colony # (% of control) ([2]; 10 μM): 59 % of control | Raw Colony # ([2]; 10 μM): 142 | clonogenic growth [10]: significant inhibition
